# Columns and labels:
# [1] = Analysis of active substance: preservative concentration before and after storage in VI-containing polymer solution; assay type: physicochemical; conditions: for active-substance concentration, 0 d, RT: before storage; for active-substance concentration, 14 d, 40° C.: storage 14 d at 40° C.; for active-substance concentration, 28 d, 40° C.: storage 28 d at 40° C.; for active-substance concentration, 60 d 40° C.: storage 60 d at 40° C.
# Method: Stability of Preservatives in VI-Containing Polymers:
# The following stabilizers for VI-containing polymers (here: aqueous solution of a copolymer of vinylpyrrolidone and vinylimidazole) were tested.
# MIT, BIT, CMIT, OIT, DCOIT and iodopropynyl butyl carbamate were determined by RP chromatography with UV detection after dilution of the sample to be tested. An RP18 column was used for this purpose, with an eluent composed of an acid-methanol mixture under isocratic conditions.
# [2] = Iodine color number according to DIN 6162:2014-09; assay type: physicochemical
# [3] = test system: Bacteria: Escherichia coli, Staphylococcus aureus, Pseudomonas aeruginosa, Pseudomonas putida, Burkholderia cepacia, Alcaligenes faecalis; experiment: Preservation test with periodic inoculation, bacteria assessment; assay type: cell-based; conditions: for Start sample measurement, bact. assess., 4th inoculation: freshly formulated; for 60 d 40° C., bact. assess., 4th inoculation: sample stored 60 d at 40° C.
# Method: (§1) Microbiological results at the start (freshly formulated, i.e. 4-week test series is started immediately) and after 60 days of storage at 40° C. (i.e. the 4-week microbial testing is started with the sample stored at 40° C. for 60 days)
# (§2) The test described below is carried out in order to ascertain the preserving effect of chemical preservatives in aqueous products and systems, the principle of the described method reflecting the efficacy of chemical preservatives with respect to pot-maintenance of aqueous products/systems under conditions corresponding to the use of laundry products/consumer products by the consumer. For this purpose, the preservatives to be tested are added in those concentrations which correspond to from the literature or to the manufacturer data from the suppliers (e.g. Thor, Speyer). In said test, our orientation was toward the upper range, which, with the exception of VI-containing polymers, had always led to excellent results in the case of aqueous polymers for laundry.
# (§3) A constant microorganism load is achieved by periodic inoculation of the test batches. Before the swabs of each batch made respectively immediately in parallel with the inoculation. The assessment is made on the basis of the microbial growth of the streaks.
# (§4) When carrying out said tests, 25 g of the polymer to be tested are weighed in each case into a vessel with a screw cap. The preservatives to be tested are each added in separate batches according to the specified use concentrations. An unpreserved product sample was used in each case for the growth control. Two days after the addition of the preservative, the samples are infected with 0.5 ml of inoculum (2% w/w). The titer of this inoculant solution is 10^9 organisms per ml. The following microorganisms are the test organisms for the preservation test:
# (§5) • Escherichia coli • Staphylococcus aureus • Pseudomonas aeruginosa • Pseudomonas putida • Burkholderia cepacia • Alcaligenes faecalis Yeast: • Candida albicans • Candida valida • Rhodotorula rura • Saccharomyces cerevisiae
# (§6) The test batches are inoculated four times altogether and once a week and are streaked on an agar plate once a week; the first streaking is done immediately before the new inoculation. Microbial growth on the agar surface is assessed after a three-day incubation at 25° C. As a precaution, negative swabs are additionally observed for a further three days and reassessed. The preserving effect is effected in a semiquantitative method via the growth of the individual streaks in accordance with the assessment from − via + to +++. The preservative result is repeatedly demonstrably robust, i.e. +++− defines the microbial growth.
# (§7) When assessing the results, it is assumed that a preservative can be regarded as good if there are batches under the above-described laboratory conditions for a period of four weeks without microbial invasion of the sample, and that, even after the fourth inoculation, no microbial attacks occur growth can be identified. • −−: no growth • −: slight growth, max. 100 colonies • 0: moderate growth, max. 400 colonies • +: uniform growth with individual colonies still easily identifiable • ++: strong growth; too many colonies to be counted, already some extensive growth
# [4] = test system: Yeast: Candida albicans, Candida valida, Rhodotorula rura, Saccharomyces cerevisiae; experiment: Preservation test with periodic inoculation, yeast assessment; assay type: cell-based; conditions: sample stored 60 d at 40° C.
# Method: as §1, §2, §3, §4, §5, §6, §7
# [5] = Polymer P5 (HP56) with stabilizer
compound,measurement,setting,value
"Cn1sccc1=O [MIT, methyl-4-isothiazolin-3-one]","active-substance concentration, 0 d, RT",[1]; in Polymer P1,250 ppm
same,"active-substance concentration, 14 d, 40° C.",[1]; in Polymer P1,217 ppm
same,"active-substance concentration, 28 d, 40° C.",[1]; in Polymer P1,156 ppm
same,"active-substance concentration, 60 d 40° C.",[1]; in Polymer P1,131 ppm
same,"active-substance concentration, 0 d, RT",[1]; in Polymer P2,250 ppm
same,"active-substance concentration, 14 d, 40° C.",[1]; in Polymer P2,181 ppm
same,"active-substance concentration, 28 d, 40° C.",[1]; in Polymer P2,139 ppm
same,"active-substance concentration, 60 d 40° C.",[1]; in Polymer P2,116 ppm
same,"active-substance concentration, 0 d, RT",[1]; in Polymer P3,250 ppm
same,"active-substance concentration, 14 d, 40° C.",[1]; in Polymer P3,171 ppm
same,"active-substance concentration, 28 d, 40° C.",[1]; in Polymer P3,140 ppm
same,"active-substance concentration, 60 d 40° C.",[1]; in Polymer P3,122 ppm
same,"active-substance concentration, 0 d, RT",[1]; in Polymer P4,250 ppm
same,"active-substance concentration, 14 d, 40° C.",[1]; in Polymer P4,164 ppm
same,"active-substance concentration, 28 d, 40° C.",[1]; in Polymer P4,136 ppm
same,"active-substance concentration, 60 d 40° C.",[1]; in Polymer P4,113 ppm
same,"active-substance concentration, 0 d, RT",[1]; in Polymer P5 (HP56),250 ppm
same,"active-substance concentration, 14 d, 40° C.",[1]; in Polymer P5 (HP56),151 ppm
same,"active-substance concentration, 28 d, 40° C.",[1]; in Polymer P5 (HP56),119 ppm
same,"active-substance concentration, 60 d 40° C.",[1]; in Polymer P5 (HP56),94 ppm
same,"active-substance concentration, 0 d, RT",[1]; in Polymer P6,250 ppm
same,"active-substance concentration, 14 d, 40° C.",[1]; in Polymer P6,143 ppm
same,"active-substance concentration, 28 d, 40° C.",[1]; in Polymer P6,117 ppm
same,"active-substance concentration, 60 d 40° C.",[1]; in Polymer P6,87 ppm
same,"active-substance concentration, 0 d, RT",[1]; in Polymer P7,250 ppm
same,"active-substance concentration, 14 d, 40° C.",[1]; in Polymer P7,149 ppm
same,"active-substance concentration, 28 d, 40° C.",[1]; in Polymer P7,123 ppm
same,"active-substance concentration, 60 d 40° C.",[1]; in Polymer P7,91 ppm
same,"active-substance concentration, 0 d, RT",[1]; in Polymer P8,250 ppm
same,"active-substance concentration, 14 d, 40° C.",[1]; in Polymer P8,151 ppm
same,"active-substance concentration, 28 d, 40° C.",[1]; in Polymer P8,119 ppm
same,"active-substance concentration, 60 d 40° C.",[1]; in Polymer P8,94 ppm
same,"active-substance concentration, 0 d, RT",[1]; in Polymer P9,250 ppm
same,"active-substance concentration, 14 d, 40° C.",[1]; in Polymer P9,131 ppm
same,"active-substance concentration, 28 d, 40° C.",[1]; in Polymer P9,98 ppm
same,"active-substance concentration, 60 d 40° C.",[1]; in Polymer P9,80 ppm
same,"Iodine color number, 60 d 40° C.",[2]; Polymer P1 with stabilizer,5.5
same,"Iodine color number, start",[2]; Polymer P1 with stabilizer,2.5
same,"Iodine color number, 60 d 40° C.",[2]; Polymer P2 with stabilizer,5.8
same,"Iodine color number, start",[2]; Polymer P2 with stabilizer,2.7
same,"Iodine color number, 60 d 40° C.",[2]; Polymer P3 with stabilizer,8.5
same,"Iodine color number, start",[2]; Polymer P3 with stabilizer,3.4
same,"Iodine color number, 60 d 40° C.",[2]; Polymer P4 with stabilizer,8.7
same,"Iodine color number, start",[2]; Polymer P4 with stabilizer,3.4
same,"Iodine color number, 60 d 40° C.",[2]; [5],8.7
same,"Iodine color number, start",[2]; [5],3.6
same,"Iodine color number, 60 d 40° C.",[2]; Polymer P6 with stabilizer,8.5
same,"Iodine color number, start",[2]; Polymer P6 with stabilizer,3.6
same,"Iodine color number, 60 d 40° C.",[2]; Polymer P7 with stabilizer,8.5
same,"Iodine color number, start",[2]; Polymer P7 with stabilizer,3.6
same,"Iodine color number, 60 d 40° C.",[2]; Polymer P8 with stabilizer,8.6
same,"Iodine color number, start",[2]; Polymer P8 with stabilizer,3.5
same,"Iodine color number, 60 d 40° C.",[2]; Polymer P9 with stabilizer,12.7
same,"Iodine color number, start",[2]; Polymer P9 with stabilizer,3.9
same,"Start sample measurement, bact. assess., 4th inoculation",[3]; Polymer P1,"− (slight growth, max. 100 colonies)"
same,"60 d 40° C., bact. assess., 4th inoculation",[3]; Polymer P1,+
same,"Start sample measurement, bact. assess., 4th inoculation",[3]; Polymer P2,"− (slight growth, max. 100 colonies)"
same,"60 d 40° C., bact. assess., 4th inoculation",[3]; Polymer P2,+
same,"Start sample measurement, bact. assess., 4th inoculation",[3]; Polymer P3,"− (slight growth, max. 100 colonies)"
same,"60 d 40° C., bact. assess., 4th inoculation",[3]; Polymer P3,+
same,"60 d 40° C., bact. assess., 4th inoculation",[3]; Polymer P4,+
same,"60 d 40° C., bact. assess., 4th inoculation",[3]; Polymer P5 (HP56),+
same,"60 d 40° C., bact. assess., 4th inoculation",[3]; Polymer P6,+
same,"60 d 40° C., bact. assess., 4th inoculation",[3]; Polymer P7,+
same,"Start sample measurement, bact. assess., 4th inoculation",[3]; Polymer P8,"− (slight growth, max. 100 colonies)"
same,"60 d 40° C., bact. assess., 4th inoculation",[3]; Polymer P8,+
same,"60 d 40° C., bact. assess., 4th inoculation",[3]; Polymer P9,+
same,"60 d 40° C., yeast assess., 4th inoculation",[4]; Polymer P1,"0 (moderate growth, max. 400 colonies)"
same,"60 d 40° C., yeast assess., 4th inoculation",[4]; Polymer P2,+
same,"60 d 40° C., yeast assess., 4th inoculation",[4]; Polymer P3,++
same,"60 d 40° C., yeast assess., 4th inoculation",[4]; Polymer P4,++
same,"60 d 40° C., yeast assess., 4th inoculation",[4]; Polymer P5 (HP56),++
same,"60 d 40° C., yeast assess., 4th inoculation",[4]; Polymer P6,++
same,"60 d 40° C., yeast assess., 4th inoculation",[4]; Polymer P7,++
same,"60 d 40° C., yeast assess., 4th inoculation",[4]; Polymer P8,+
same,"60 d 40° C., yeast assess., 4th inoculation",[4]; Polymer P9,++

# Reference: patent US12281225B2, “Process for preparing stable polymers containing vinylimidazole” (BASF SE, priority 2018, dated 2025)
